Test results: patent publication US8318798B2, “Therapeutic agent for neurodegenerative disease” (priority 2005, dated 2012)

Legend:
DJ-1 protein [1] = target: T1, DJ-1 protein (Homo sapiens, UniProt Q99497); assay: Binding to DJ-1 protein by AffinixQ quartz oscillator frequency change; conditions: compound fixed on sensor chip; DJ-1 protein vs BSA added (FIG. 11)
T1 sequence (Q99497 1-189): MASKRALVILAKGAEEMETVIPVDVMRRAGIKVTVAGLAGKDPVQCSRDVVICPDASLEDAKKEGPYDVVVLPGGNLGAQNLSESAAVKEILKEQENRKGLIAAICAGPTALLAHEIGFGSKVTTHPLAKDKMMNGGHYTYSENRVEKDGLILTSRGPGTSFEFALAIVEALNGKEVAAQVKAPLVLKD
Text: The AffinixQ is an instrument for quantifying interaction between biomolecules at the order of nanograms by changes in frequency of the crystal oscillator. It utilizes the proportional relationship between change in frequency of the quartz oscillator and the weight of the adherings on the surface of the quartz oscillator.
The compound was fixed on top of the sensor chip, which is the oscillator, using an amino coupling reagent. The sensor chip onto which the compound had been fixed was immersed in a measurement vessel filled with 8 mL of PBS (phosphate buffer), and held until the frequency became constant. Following this, 8 μL of 1 mg/mL DJ-1 protein or BSA (bovine serum albumin) was added to the measurement vessel.

DJ-1 protein [2] = target: T1, DJ-1 protein; assay: Suppression of transition of DJ-1 to oxidized form (H2O2 treatment, isoelectric focusing); assay type: biochemical; conditions: 0.2 mM or 2 mM H2O2, room temperature 1 hour; isoelectric focusing (FIG. 12)
Method: In this example, it was confirmed that compound 1 and compound 5 suppressed the transition of DJ-1 to an oxidized form.
0.5 mg of purified DJ-1 protein was dissolved in 1 mL of PBS. 10 μL of 1 mM compound 1, 5, or 7 was added to 500 μL of this DJ-1 protein solution, and rotated at 4° C. for 1 hour. Subsequently, 0.4 or 4 mM hydrogen peroxide (H2O2) was added thereto, the mixture was allowed to stand at room temperature for 1 hour then the hydrogen peroxide concentration became 0.2 mM or 2 mM. Further, dialysis was carried out 3 times with PBS for a total of 4.5 hours, followed by an isoelectric focusing 0.5 μg of the DJ-1 protein . The reagents used in the isoelectric focusing were as follows. • Gel solution for isoelectric focusing: 9.2 M Urea, 2% NP-40, 4% acrylamide, 1% Ampholine (pH 5-8; Amersham Bioscience), 1% Ampholine (pH 3-10; Amersham Bioscience) • Sample Buffer: 5 M Urea, 2 M ThioUrea, 2% NP-40, 5% Glycerin, 5% 2-mercaptoethanol, 1.6% Ampholine (pH 5-8), 0.4% Ampholine (pH 3.5-10) • Protection solution: 8 M Urea, 0.8% Ampholine (pH 5-8), 0.2% • Ampholine (pH 3.5-10) • Electrophoresis Buffer+electrode: 0.02 M Phosphoric acid • −electrode: 0.02 M NaOH • Towbin: 25 mM Tris, 192 mM Glycine

dopamine neurons = assay: TH staining of dopamine neurons in rat midbrain substantia nigra after 6-OHDA injection; assay type: in vivo; conditions: 1 mM compound injected simultaneously with 6 mM 6-OHDA (FIG. 16)
Method: The midbrain substantia nigra (SNpc) was dissected out and fixed in a 100 mM phosphate buffer containing 4% of paraformaldehyde for 2 days, and then submerged in 100 mM phosphate buffer (containing 15% of sucrose and 0.1% of sodium azide). A 20 μm thick slices were prepared using Cryostat, and submerged in a 100 mM phosphate buffer containing 0.3% Triton X-100 (PBS-T).
These brain slices were reacted with anti-tyrosine hydroxylase (TH: a dopamine-biosynthetic enzyme and marker for dopamine neurons, manufactured by Sigma, 1:20,000 dilution) at 4° C. for 3 days, then washed, and reacted with a biotinylated anti-mouse IgG antibody (1:2,000 dilution) at room temperature for 2 hours. Subsequently, avidin peroxidase coloration was carried out using an ABC kit (Vector Laboratories) at room temperature for 1 hour. After washing several times with PBS-T, coloration was carried out by nickel ammonium-containing 3,3′-diaminobenzidine (DAB).
In the left substantia nigra into which only 6-OHDA was injected, TH staining was not observed and thus dopaminergic neuron death was observed. In the right substantia nigra, which was not injected with 6-OHDA, live dopamine neurons were observed (FIG. 16 (1)).

mitochondrial complex 1 = assay: Maintenance of mitochondrial Complex 1 activity in 6-hydroxydopamine-treated SH-SY5Y cells; assay type: cell-based, human; conditions: compound 1 μM, 24 h before 50 μM 6-hydroxydopamine, 6 h; compared with control (FIG. 13)
Method: In this example, the effect of compounds 1, 5, and 8 in maintaining the activity of mitochondrial complex 1 was examined.
6-Hydroxydopamine induces oxidative stress by degrading the enzymic activity of Complex 1 and thereby causing a functional disorder. It is considered that the compounds identified here would suppress neuronal death due to oxidative stress by preventing deactivation of complex 1. Therefore, changes in activity of complex 1 resulting from addition of the compound was measured.
SH-SY5Y human neurons were plated onto a 10 cm dish and cultured to 80% confluency. Compounds 1, 5, and 8 individually were added at the compound concentration of 1 μM, or sterile water was added. 24 hours after the addition of the compound or sterile water, 6-hydroxydopamine (PBS solvent) was added at a 6-hydroxydopamine concentration of 50 μM, or the same amount of PBS (containing no 6-hydroxydopamine) was added. 6 hours after the addition of 6-hydroxydopamine, the cells were collected. […] After quantifying the protein, 100 μg of the mitochondrial protein was added to a cuvette filled with a reaction buffer, and the total amount was made up to 480 μL. After incubation at 37° C. for 3 minutes, 20 μL of 5 mM NADH was added to the cuvette, and decrease in absorbance at 340 nm was monitored for 4 minutes using an absorptiometer. […]

SH-SY5Y human neurons = assay: Suppression of 6-hydroxydopamine-induced cell death of SH-SY5Y human neurons (Cell Counting Kit-8 / MTT assay); assay type: cell-based; conditions: compound 1 μM, 24 h before 100 μM 6-hydroxydopamine, 40 h; compared with control (FIG. 9)
Method: In this example, the effect of compounds 1 to 8 in suppressing cell death of SH-SY5Y human neurons was examined.
SH-SY5Y human neurons ([…], USA) were plated on a 96-well plate, and cultured to 80% confluency.
Compounds 1 to 8 in sterile aqueous solutions were individually added thereto at a sample concentration of 1 μM, or sterile water was added as a control.
24 hours after the addition of compounds 1 to 8 or sterile water, 6-hydroxydopamine (PBS solvent) (Wako Pure Chemical Industries, Ltd.) was added to each at a 6-hydroxydopamine concentration of 100 μM, or the same amount of PBS (containing no 6-hydroxydopamine) was added. Furthermore, 40 hours after the addition of 6-hydroxydopamine, Cell Counting Kit-8 was added for carrying out an MTT assay.
After 3 hours, a viable cell count was measured by measuring the absorbance at wavelength of 450 nm. For each of compounds 1 to 8 and the control, the viability was obtained from ‘(the viable cell count when 6-hydroxydopamine was added)/(the viable cell count when no 6-hydroxydopamine was added)’.
Compared with the control and compounds 7 and 8, it can be seen that the addition of any one of compounds 1 to 6 enhances the viability.

[3] = tested on: rats injected with 6-hydroxydopamine (6-OHDA); assay: Methamphetamine-induced rotation of rats injected with 6-OHDA into midbrain left substantia nigra; assay type: in vivo, rat; conditions: 1 mM compound injected simultaneously with 6 mM 6-OHDA into left substantia nigra; methamphetamine after 9 weeks
Method: In this example, compound 1, 5, or 8 was injected into rat midbrain left substantia nigra and the effect thereof was examined. • (1) Either 6 mM of 6-hydroxydopamine (6-OHDA) alone or mixtures of 6 mM of 6-OHDA and 1 mM of each compound was injected into the midbrain left substantia nigra (4.8 mm×1.8 mm, 7.8 mm depth) of rats (Wister rat, male, 250 g). Where the rat was injected with 6 mM of 6-hydroxydopamine (6-OHDA) in midbrain left substantia nigra, the right-side substantia nigra was intact but in the left-side oxidative stress induced the death of dopamine neurons, and the rat rotate in a clockwise direction due to the imbalanced amount of acting dopamine, showing a behavioral abnormality characteristic of Parkinson's disease patients.
After 9 weeks, the rats were injected with methamphetamine (Dainippon Pharma Co., Ltd.), which causes a dopamine release, leading to a release of large amount of dopamine from dopamine neurons into the striatum. Because of the imbalance in the amounts of released dopamine between the left and right substantia nigra the rats started to rotate in a clockwise direction. The rats were placed in a rotameter, and the number of rotations was measured. The total number of rotations over 60 minutes is shown in FIG. 14, and the number of rotations at every 5 minutes over time is shown in FIG. 15. […]

Row | SMILES | binding to DJ-1 protein (frequency change) (DJ-1 protein [1]) | dopaminergic neuronal death in left substantia nigra (TH staining) (dopamine neurons) | other results
1 | CC1(C)OC2C(=O)O[C@@H](n3cnc4c(N)ncnc43)C2O1 (some centres unmarked) [compound 1] | bind to DJ-1 protein | neuronal death was considerably suppressed | transition of DJ-1 protein to an oxidized form (DJ-1 protein [2]): suppressed the transition of DJ-1 protein to an oxidized form; Complex 1 activity (mitochondrial complex 1): Complex 1 activity was maintained
2 | CS(=O)(=O)O[C@H]1CO[C@@H](Cn2cnc3c(N)ncnc32)C1O (some centres unmarked) [compound 2] | bind to DJ-1 protein | – | –
3 | CC(=O)O[C@H](CO)[C@H](O)C(O)Cn1cnc2c(N)ncnc21 (some centres unmarked) [compound 4] | bind to DJ-1 protein | – | –
4 | COc1ccc(CC(=O)NCCc2cc(OC)c3c(c2)OCO3)cc1OCc1ccccc1 [compound 5] | – | neuronal death was considerably suppressed | transition of DJ-1 protein to an oxidized form (DJ-1 protein [2]): suppressed the transition of DJ-1 protein to an oxidized form; Complex 1 activity (mitochondrial complex 1): Complex 1 activity was maintained
5 | NC(=O)C(CS(N)(=O)=O)NC(=O)C(Cc1ccccc1)NC(=O)CNC(=O)OCc1ccccc1 (centres unmarked) [compound 6] | bind to DJ-1 protein | – | –
6 | CC1(C)OC2C(O1)[C@@H](CO)O[C@H]2n1cnc2c(NC(=O)C(C)(C)C)ncnc21 (some centres unmarked) [compound 7] | – | – | viability (effect in suppressing cell death) (SH-SY5Y human neurons): did not have such effects
7 | COCO[C@@H](/C=C/C(=O)OCc1ccccc1)[C@@H](CCO[Si](C)(C)C(C)(C)C)C(Cc1ccccc1)Cc1ccccc1 [compound 8] | – | did not have such effect | effect on behavioral abnormality (number of rotations), in words [3]: did not show such effect; viability (effect in suppressing cell death) (SH-SY5Y human neurons): did not have such effects
